Assay [1] has as its system formation of TNF-α in cell strain RAW 264.7. In words: Activity for inhibiting the formation of TNF-α in vitro (RAW 264.7 cells, ELISA). It counts as cell-based. Conditions: Mus musculus, RAW264.7, control 100, LPS 100 ng/ml, 24 hours, read-out: Ratio of formed amount of TNF-α. Here is the method:
[Evaluation test of activity for inhibiting the formation of TNF-α in vitro]
Pyrimidine derivative obtained in Example 1 was used as test compound.
Cell strain RAW 264.7 (ATCC) derived from the macrophage of mouse was placed on each one of the wells on a microplate having 24-wells so as to put the cells in an amount of 3×10^5 cells/U (well). The cells were incubated for 24 hours in a phenol red free-RPMI-1640 culture medium (mfd. by GIBCO) to which 10% of equine serum (mfd. by Bio Whittaker), 100 U/ml of penicillin (mfd. by Dainippon Pharmaceutical Co., Ltd.) and 100 μg/ml of streptomycin (mfd. by Dainippon Pharmaceutical Co., Ltd.) were added.
Next, the equine serum was removed from the culture medium, and the reference culture medium as control was prepared by adding 2 mM of L-arginine (mfd. by Wako Pure Chemical Industries, Ltd.), 10 μM/ml of tetrahydrobiopterin (mfd. by ALEXIS) and 100 ng/ml of lipopolysaccharide (LPS)(mfd. by Sigma Chemical Co.) to a phenol red free-RPMI-1640 culture medium, so as to induce the formation of TNF-α.
On the other hand, the test culture medium, containing the test compound of Example 1 was prepared similarly as in the reference culture medium, except adding the test compound (1×10^-4, 1×10^-5 and 1×10^-6 M) dissolved in dimethyl sulfoxide (DMSO) at the same time of LPS-addition.
The concentration of TNF-α formed in the supernatant of each one of the culture media after 24 hour-incubation was measured by Factor-Test-X Mouse TNF-α ELISA Kit (mfd. by genzyme).
In general terms: An ELISA detects its analyte on a solid surface through an enzyme-linked reagent.

The next assay has as its system late asthmatic response. The experiment in a line: Model experiment of asthma in guinea pigs (inhibition of late asthmatic response). The assay is classed as in vivo, guinea pig. Conditions: 10 mg/Kg orally 30 minutes before antigen; 6 animals; control 112 ± 17.8. As to the method:
[Model experiment of asthma in guinea pigs. (Inhibition of late asthmatic response)]
Hartley strain female guinea pigs (SLC) having the body weight of about 350 g were used and 50 mg/Kg of cyclophosphamide (mfd. by Sigma Chemical Co.) was injected intraperitoneally. 2 Days after this pretreatment by injection, 1 mg of egg albumin (mfd. by Sigma Chemical Co.) and 100 mg of aluminum hydroxide (Wako Pure Chemical Industries Co., Ltd.) were injected intraperitoneally for sensitization. 3 Weeks after the sensitization, 10 μg of egg albumin and 100 mg of aluminum hydroxide were injected intraperitoneally for booster sensitization. 6 Weeks after the primary sensitization, asthma attach was induced by inhalation and exposure to egg albumin (4 mg/ml) by using a nebulizer (NE-U12: mfd. by Omron Corp.). The asthma reaction was determined by use of a body-plethysmography (using system developed by Uchida lecturer in internal department for respiratory organs at Tsukuba University; air-resist tube, respiratory amplifier and differential pressure transducer (mfd. by Nihon Koden); and osciloscope (mfd. by Iwasaki Tsushin)), so as to determine a […] of specific airway conductance (sGaw) under the condition without anesthesia. The sGaw value just before the administration of test comopound was measured and the value is referred to as 100. Test compound was suspended in 1% HPMC (hydroxymethylpropylcellulose mfd. by Shinetsu Chemical), and was administered orally 30 minutes before the exposure with the antigen. Then, sGaw value was measured in each points until 7 hours after the exposure with the antigen.

The results in this text go back to US6197774A, “Pyrimidine derivative” (Otsuka Pharmaceutical Co., Ltd., priority 1997, dated 2001).

Structures are written as SMILES.

With `COCc1cc(=O)n2ncc(-c3ccc(Sc4ccccc4)cc3)c2[nH]1` [Example 1, 4,7-dihydro-5-methoxymethyl-7-oxo-3-(4-phenylthiophenyl)pyrazolo[1,5-a]pyrimidine], the activity at 100 µM in assay [1] (1 × 10^-4 M) was 5.1%. Further, in assay [1] (1 × 10^-5 M), the activity at 10 µM is 59.9%. Also, the activity at 1 µM in assay [1] (1 × 10^-6 M) turned out to be 120%. For the same compound, the “AUC (4-7 hours) of sGaw reaction” value in the assay on late asthmatic response is 32.8 ± 9.2.
